Assay results: patent US5225607A, “Insecticidal ethers” (Imperial Chemical Industries PLC, priority 1985, dated 1993)

Tests used:
Assay type in all cases: in vivo
Diabrotica balteata = experiment: Insecticidal test, Diabrotica balteata (rootworm larvae), residual; conditions: 72 h, filter paper/maize seed, 3 days, read-out: grading of mortality, DB
Procedure: (§1) The activity of the Product was determined using a variety of insect and acarine pests. The Product was used in the form of liquid preparations containing 500, 250 or 100 parts per million (ppm) by weight of the Product. The preparations were made by dissolving the Product in acetone and diluting the solutions with water containing 0.01% by weight of a wetting agent sold under the trade name "LISSAPOL" NX until the liquid preparations contained the required concentratio of the Product. "Lissapol" is a Registered Trade Mark.
(§2) The test procedure adopted with regard to each pest was basically the same and comprised supporting a number of the pests on a medium which was usually a host plant or a foodstuff on which the pests feed, and treating either or both the pests and the medium with the preparations. The mortality of the pests was then assessed at periods usually varying from one to three days after the treatment.
(§3) The results of the tests are given in Table IV for each of the Products, at the rate in parts per million given in the second column as a grading of mortality designated as A, B or C wherein A indicates 80-100% mortality or knockdown (70-100% in the case of Spodoptera exigua), B indicates 50-79% mortality or knockdown (50-69% in the case of Spodoptera exigua) and C indicates less than 50% mortality or knockdown.
(§4) In Table IV the pest organism used is designated by a letter code and the pest species, the support medium or food, and the type and duration of test is given in Table III.

Heliothis virescens = experiment: whole plant or invertebrate; conditions: in Gossypium hirsutum, 72 h, read-out: grading of mortality, HV
Procedure: as §1, §2, §3, §4

Musca domestica [1] = experiment: Insecticidal test, Musca domestica (houseflies - adults), contact; conditions: 24 h, cotton wool/sugar, 1 day, read-out: grading of mortality, MD
Procedure: as §1, §2, §3, §4

Myzus persicae = experiment: Insecticidal test, Myzus persicae (aphids), contact; conditions: 72 h, Chinese Cabbage leaf, 3 days, read-out: grading of mortality, MP
Procedure: as §1, §2, §3, §4

Nilaparvata lugens = experiment: Insecticidal test, Nilaparvata lugens (brown planthopper), contact; conditions: 72 h, Cabbage leaf, 3 days, read-out: grading of mortality, NL
Procedure: as §1, §2, §3, §4

Blattella germanica = experiment: Insecticidal test, Blattella germanica (cockroach nymphs), residual; conditions: 72 h, plastic pot, 3 days, read-out: grading of mortality, BG
Procedure: as §1, §2, §3, §4

Musca domestica [2] = experiment: Knockdown test, Musca domestica (houseflies - adults); conditions: cotton wool/sugar, 4 hours, read-out: grading of knockdown, MD/KD
Procedure: as §1, §2
In the case of the species Musca domestica (housefly), additional tests to determine the knockdown effect of the compounds were performed.
as §3, §4

Structure (SMILES)	mortality at 250 ppm (Diabrotica balteata)	mortality at 250 ppm (Heliothis virescens)	mortality at 250 ppm (Musca domestica [1])	mortality at 250 ppm (Myzus persicae)	mortality at 250 ppm (Nilaparvata lugens)	mortality at 250 ppm (Blattella germanica)	pest or weed control at 250 ppm (Musca domestica [2])	other results
CCOc1ccc(C(COCc2cccc(Oc3ccccc3)n2)C(F)(F)F)cc1 (stereo not drawn) [Compound 4, 1,1,1-Trifluoro-2-(4-ethoxyphenyl)-3-(6-phenoxy-2-pyridylmethyloxy)propane]	–	–	–	–	–	–	–	mortality at 100 ppm (Diabrotica balteata): 80 to 100%; mortality at 100 ppm (Heliothis virescens): 80 to 100%; mortality at 100 ppm (Musca domestica [1]): 80 to 100%; mortality at 100 ppm (Myzus persicae): 80 to 100%; mortality at 100 ppm (Nilaparvata lugens): 80 to 100%; mortality at 100 ppm (Blattella germanica): 80 to 100%; pest or weed control at 100 ppm (Musca domestica [2]): 80 to 100%
CCOc1ccc(C(Cl)(COCc2c(F)c(F)c(C)c(F)c2F)C(F)(F)F)cc1 (stereo not drawn) [Compound 39, 1,1,1-Trifluoro-2-chloro-2-(4-ethoxyphenyl)-3-(4-methyl-2,3,5,6-tetrafluorobenzyloxy)propane]	< 50%	< 50%	< 50%	< 50%	80 to 100%	< 50%	< 50%	–
CCOc1ccc(C(Cl)(COCc2ccc(F)c(Oc3ccccc3)c2)C(F)(F)F)cc1 (stereo not drawn) [Compound 40, 1,1,1-Trifluoro-2-chloro-2-(4-ethoxyphenyl)-3-(3-phenoxy-4-fluorobenzyloxy)propane]	80 to 100%	80 to 100%	80 to 100%	80 to 100%	80 to 100%	80 to 100%	80 to 100%	–
CCOc1ccc(C(Cl)(COCc2cccc(Oc3ccccc3)n2)C(F)(F)F)cc1 (stereo not drawn) [Compound 41, 1,1,1-Trifluoro-2-chloro-2-(4-ethoxyphenyl)-3-(6-phenoxy-2-pyridylmethyloxy)propane]	–	–	–	–	–	–	–	mortality at 500 ppm (Diabrotica balteata): 80 to 100%; mortality at 500 ppm (Heliothis virescens): 80 to 100%; mortality at 500 ppm (Musca domestica [1]): 80 to 100%; mortality at 500 ppm (Myzus persicae): 80 to 100%; mortality at 500 ppm (Nilaparvata lugens): 80 to 100%; mortality at 500 ppm (Blattella germanica): < 50%; pest or weed control at 500 ppm (Musca domestica [2]): 80 to 100%
CCOc1ccc(C(F)(COCc2cccc(Oc3ccccc3)c2)C(F)(F)F)cc1 (stereo not drawn) [Compound 75, 1,1,1,2-tetrafluoro-2-(4-ethoxyphenyl)-3-(3-phenoxybenzyloxy)propane]	–	–	–	–	–	–	–	mortality at 100 ppm (Diabrotica balteata): 80 to 100%; mortality at 100 ppm (Heliothis virescens): < 50%; mortality at 100 ppm (Musca domestica [1]): 50 to 79%; mortality at 100 ppm (Myzus persicae): 50 to 79%; mortality at 100 ppm (Nilaparvata lugens): 80 to 100%; mortality at 100 ppm (Blattella germanica): < 50%; pest or weed control at 100 ppm (Musca domestica [2]): 80 to 100%
CCOc1ccc(C(F)(COCc2cccc(Oc3ccccc3)n2)C(F)(F)F)cc1 (stereo not drawn) [Compound 76, 1,1,1,2-Tetrafluoro-2-(4-ethoxyphenyl)-3-(6-phenoxy-2-pyridylmethyloxy)propane]	–	–	–	–	–	–	–	mortality at 500 ppm (Diabrotica balteata): 80 to 100%; mortality at 500 ppm (Heliothis virescens): 80 to 100%; mortality at 500 ppm (Musca domestica [1]): 80 to 100%; mortality at 500 ppm (Myzus persicae): 80 to 100%; mortality at 500 ppm (Nilaparvata lugens): 80 to 100%; mortality at 500 ppm (Blattella germanica): 80 to 100%; pest or weed control at 500 ppm (Musca domestica [2]): 80 to 100%
CCOc1ccc(C(F)(COCc2ccc(F)c(Oc3ccccc3)c2)C(F)(F)F)cc1 (stereo not drawn) [Compound 77, 1,1,1,2-Tetrafluoro-2-(4-ethoxyphenyl)-3-(3-phenoxy-4-fluorobenzyloxy)propane]	80 to 100%	80 to 100%	80 to 100%	80 to 100%	80 to 100%	80 to 100%	80 to 100%	–
CCOc1ccc(C(F)(COCc2c(F)c(F)c(C)c(F)c2F)C(F)(F)F)cc1 (stereo not drawn) [Compound 78, 1,1,1,2-Tetrafluoro-2-(4-ethoxyphenyl)-3-(4-methyl-2,3,5,6-tetrafluorobenzyloxy)propane]	80 to 100%	80 to 100%	< 50%	< 50%	80 to 100%	80 to 100%	< 50%	–
CCOc1ccc(C(O)(COCc2ccc(F)c(Oc3ccccc3)c2)C(F)(F)F)cc1 (stereo not drawn) [Compound 113, 1,1,1-Trifluoro-2-(4-ethoxyphenyl)-3-(4-fluoro-3-phenoxybenzyloxy)propan-2-ol]	80 to 100%	< 50%	50 to 79%	< 50%	50 to 79%	< 50%	80 to 100%	–
